# Laboratory results: patent US20250000767A1, “FORMULATIONS AND METHODS FOR SKIN REGENERATION” (ENTRINSIC, LLC, priority 2023, published 2025)
# Legend:
# Type in all cases: cell-based, human
# [1] = tested on: skin barrier marker genes in differentiated NHEK; assay: comparative analysis of qPCR data from two donors with scoring system, single amino acids; conditions: for ranking as most effective or least effective amino acids (scoring system): qPCR data from two donors
# Excerpt: The scoring system was developed to address the numerous variables arising from the experimental results. […] See, e.g., FIGS. 3 and 4.
# (§1) To test the effect of amino acid treatment on epithelial skin barrier, a cellular model of differentiated normal human epidermal keratinocytes (NHEK) was utilized. Commercially available NHEK (ATCC), derived from three diverse healthy donors, were used.
# [2] = tested on: EGF, PDGF, FGF2, and PPARD genes (skin barrier markers); assay: single amino acids and combinations on barrier marker genes EGF, FGF2, PDGF, PPARD in differentiated NHEK (FIG. 28); conditions: alone or in combination; action on skin barrier markers
# Method: Treatment time-4 h. […] Exemplary barrier marker genes examined as follows: Epidermal growth factor (EGF); fibroblast growth factor 2 (FGF2); platelet derived growth factor (PDGF); Peroxisome Proliferator Activated Receptor Delta (PPARD).
# Once the skin barrier marker panel was identified, a scoring system by which to evaluate different amino acids or combinations thereof under consideration was developed. The scoring system was developed to address the numerous variables arising from the experimental results. […] Sec, e.g., FIG. 28. […] See, e.g., FIG. 29.
# as §1
# The marker genes: epidermal growth factor (EGF); platelet-derived growth factor (PDGF), fibroblast growth factor 2 (FGF2), peroxisome proliferator activated receptor delta (PPARD).
# Amino acid(s) are mixed in previously established concentrations in water and added to amino acid-deprived culture medium.
# mRNA is extracted, converted to cDNA, and analyzed by qPCR method using custom TaqMan array 384-well plates (Thermo Fisher Scientific) containing the above-mentioned genes. Control housekeeping genes were included to normalize the mRNA expression: GAPDH and/or YWHAZ. The array plate contained the genes and samples were analyzed in by qPCR.
# HAS2 mRNA = HAS2 mRNA fold change in donor keratinocytes, 4GAA and retinol (qPCR); conditions: 4GAA 4 mM, ROL 10 μM
# Method: (§2) FIGS. 18A-18C show the fold change of a specific gene mRNA comparing the 4 amino acid combination (Ala, Gln, Gly, Ser; 4GAA; 4 mM), and retinol (ROL; 10 μM), alone or in combination with Donor E. Donor G. Donor O. Donor R. and Donor T human-derived epidermal keratinocytes (NHEK) to control (CTR; untreated control without amino acids or retinol) with a 4 h treatment in amino acid (AA)-deprived medium. The data of FIGS. 18A-18C are shown in graphical form showing CTR; 4GAA (4 mM); ROL (10 μM); 4GAA (4 mM)+ROL (10 μM) combination. […] FIGS. 18D-18F show the data in tabular form (Donor E (n=3). Donor G (n=3). Donor O (n=3). Donor R (n=3), and Donor T (n=3)) for fold change of HAS1 mRNA. HAS2 mRNA, and HAS3 mRNA, respectively, and in tabular form showing the fold change for each of the specified conditions under each respective graphical form.
# (§3) FIGS. 19A-19D show the fold change of a specific gene mRNA comparing the 4 amino acid combination (Ala. Gln. Gly, Ser; 4GAA; 4 mM), and retinol (ROL; 10 μM), alone or in combination to control (CTR; untreated control without amino acids or retinol) with Donor O human-derived epidermal keratinocytes (NHEK) with a 24 h treatment in complete medium. The data of FIGS. 19A-19D are shown in graphical form showing CTR; 4GAA (4 mM); ROL (10 μM); 4GAA (4 mM)+ROL (10 μM) combination. […]
# HAS3 mRNA = HAS3 mRNA fold change in donor keratinocytes, 4GAA and retinol (qPCR); conditions: 4GAA 4 mM, ROL 10 μM
# Method: as §2, §3
# COL1A1 mRNA = COL1A1 mRNA fold change in donor keratinocytes, 4GAA and retinol (qPCR); conditions: 4 h, amino acid-deprived medium, 4GAA 4 mM, ROL 10 μM
# Method: (§4) FIGS. 17A-17C show the fold change of a specific gene mRNA comparing the 4 amino acid combination (Ala, Gln, Gly, Ser; 4GAA; 4 mM), and retinol (ROL; 10 μM), alone or in combination, to control (CTR; untreated control without amino acids or retinol) with Donor E, Donor G. Donor O, Donor R, and Donor T human-derived epidermal keratinocytes (NHEK) with a 4 h treatment in amino acid (AA)-deprived medium. The data are shown in graphical form showing CTR; 4GAA (4 mM); ROL (10 μM); 4GAA (4 mM)+ROL (10 μM) combination.
# (§5) Keratinocytes from different donors (e.g., human-derived epidermal keratinocytes (NHEK)), skin equivalents (e.g., 3D models (human epidermal skin equivalents)), or fibroblasts (e.g., human dermal fibroblasts, adult (HDFa)) were cultured in amino acid-deprived media or complete media for 4 hours or 24 hours after complete differentiation and, in parallel, were treated with an amino acid combination (4GAA; alanine, glutamine, glycine, serine) at 4 mM, 10 μM retinol (ROL), or the combination of 4 mM 4GAA and 10 μM ROL. Cells were harvested, RNA was extracted, and qPCR analysis was performed with a housekeeping gene, e.g., GAPDH.
# (§6) FIGS. 17A-17C and 18A-18C show the graphical results of the fold change, where the average fold change is depicted by the horizontal bar for each condition and each of the donors (Donors E, G, O, R, T) is depicted by a colored circle. […]
# TGFB mRNA = TGFB mRNA fold change in donor keratinocytes, 4GAA and retinol (qPCR); conditions: 4 h, amino acid-deprived medium, 4GAA 4 mM, ROL 10 μM
# Method: as §4, §5, §6
# [3] = Donor O and Donor R keratinocytes, 24 h, complete medium
# [4] = donor keratinocytes, 4 h, amino acid-deprived medium
SMILES,ranking as most effective or least effective amino acids (scoring system) [1],effect on skin regeneration including skin barrier function [2],further results
"C[C@H](N)C(=O)O [Ala, alanine]",most effective,beneficial effect,
"N=C(N)NCCC[C@H](N)C(=O)O [Arg, arginine]",,beneficial effect,effects in preliminary screens [1]: positive effects
"N[C@@H](CC(=O)O)C(=O)O [Asp, aspartic acid]",least effective,,
"N[C@@H](CS)C(=O)O [Cys, cysteine]",least effective,,
"NC(=O)CC[C@H](N)C(=O)O [Gln, glutamine]",most effective,beneficial effect,
"NCC(=O)O [Gly, glycine]",most effective,beneficial effect,
O=C(O)[C@@H]1CCCN1 [Pro],least effective,,
"CC1=C(/C=C/C(C)=C/C=C/C(C)=C/CO)C(C)(C)CCC1 [ROL, retinol]",,,HAS2 mRNA gene expression (HAS2 mRNA; [3]): upregulated; HAS2 gene expression (HAS2 mRNA; [4]): upregulated; HAS3 mRNA gene expression (HAS3 mRNA; [3]): upregulated; HAS3 gene expression (HAS3 mRNA; [4]): upregulated; COL1A1 mRNA expression (COL1A1 mRNA): upregulated; TGFB mRNA expression (TGFB mRNA): upregulated
"N[C@@H](CO)C(=O)O [Ser, serine]",most effective,beneficial effect,
"C[C@@H](O)[C@H](N)C(=O)O [Thr, threonine]",least effective,beneficial effect,
"N[C@@H](Cc1c[nH]c2ccccc12)C(=O)O [Trp, tryptophan]",,beneficial effect,effects in preliminary screens [1]: positive effects
"N[C@@H](Cc1ccc(O)cc1)C(=O)O [Tyr, tyrosine]",least effective,,
CC[C@H](C)[C@H](N)C(=O)O [isoleucine],,beneficial effect,
CC(C)[C@H](N)C(=O)O [valine],,beneficial effect,
